In one assay the test system is all tested plants. Briefly: Most frequent TLC biomarker pattern of all tested plants. The class given is in vivo. The following applies: stability experiments. From the text: By th term “standard biomarker pattern” is m ant a patternd of the composition of compounds present in a plant after exposure to known stress factors. According to th invention th biomarker pattern of the unknown compounds, i.e. the above described biomarker pattern, is correlated to a standard biomarker pattern, also referred to as a “most frequent pattern”. In order to interpret the biomarker patterns of test material that has been exposed to unknown stress factors, it is a prerequisite to provide standard biomarker patterns, i.e. most frequent patterns. By the latter is meant the same type of biomarker pattern obtained after exposure to a stress factor in more than 50% of the cases of exposure, such as 60%, for example 70%, such as 80%, for example 90%. The biomarker patterns of test material that has been exposed to unknown stress factors may then be correlated to standard biomarker patterns. The standard biomarker pattern may be obtained for one particular stress factor or for a combination of at least two different stress factors.
The study was performed in greenhouse between August and December 1998 for all species. Degree days (=(Present temperature in ° C.-5° C.)×amount of days) were used as time scale. […] Before the harvest, the plants were evaluated for visual effects using the rating chart described in Table 1 (Hamit et al., 1977). […]

For another assay, the system named is white birch seedlings. The following applies: within 24h of application, even at 1% of field rate; cited from earlier work.
A further assay has as its system Centauréa cýanus. Briefly: TLC plant biomarker pattern after herbicide spraying (greenhouse). The class given is in vivo.
In a further assay the test system is Nepeta cataria. Description: TLC phytochemical changes after Roundup Bio (sensitivity). The class given is in vivo. From the text:
(§1) Glyphosate (Roundup Bio (360 g L1:) was supplied by Monsanto Denmark ANS. Recommended field dose =1,44 kg a.i. ha^−1. In all the experiments, an automatic sprayer (designed in Denmark by Jens Kristensen 1994) was used where the herbicide application is achieved by moving boom equipment with two ordinary hydraulic flat fan nozzles (Hardl 4110-16). Two pots per spray event were placed in the middle of the spray chamber at 50 cm distance from the nozzle, delivering 200 L of water per hectare with a desired herbicide concentration (working pressure 2 bars; speed of spray boom=4.7 km h^1). The spraying was performed starting with the lowest concentration first, progressing towards the highest concentration. Between each herbicide, the sprayer was thoroughly rinsed several times with water. The control plants were sprayed with water.
(§2) The study was performed in greenhouse between August and December 1998 for all species. Degree days (=(Present temperature in ° C.-5° C.)×amount of days) were used as time scale. The plants were 226-378 degree days (30 days) old before exposure. The plants were exposed to 0, 1. 10 and 100% of the recommended field dose of Roundup Bio. Before the harvest, the plants were evaluated for visual effects using the rating chart described in Table 1 (Hamit et al., 1977). A rating of zero indicates full growth and vigour (compared with control plants) and a rating of nine, no growth/mortality. The plants were all harvested 180 degree days (14 days) after exposure. The plants were lyophilizied and k pt dry and in dark before phytochemical analysis.
(§3) 250 mg lyophilized plant material was crushed and extracted with 5.00 ml 75% ethanol in water in ultrasonic bath for two hours. Ice was added to the bath every 30 minutes to keep the temperature constant during the extraction. The extracts wer transferred to vials and centrifuged (3000 g per min.) for 10 minut s. The extract was immediately used for phytochemical analysis.
(§4) Frozen or fresh plant material was pressed for plant sap using a hand press. The sap was transferred to vials and centrifuged (3000 g per min.) for 10 minutes. The extract was immediately used for phytochemical analysis.
(§5) Rf-values (defined as, Rf-value=Distance of spot centre from start point/Distance of solvent front from start point (Stahl, 1969)) were determined for all phytochemical compounds.
(§6) In table 2 the sensitivity of the different plant species to Roundup Bio is presented. The sensitivity of the plant species was evaluated on basis of the presence of the most frequent pattern, the lowest concentration of exposure, and the visual effect of the exposed plants. In table 2, the plant species are divided into three groups: Group I: Very sensitive plant species; Group II: Medium sensitive plant species, and Group III: Less sensitive plant species. In Group I, a phytochemical pattern was present in plants exposed to 1% of the recommended field dose of Roundup Bio with a visual effect from 0 to 4. In Group II, a phytochemical pattern was found in plants exposed to 1 to 10% of the recommended field dose of the herbicide with a visual effect from 0 to 5. Finally, Group III presents plant species containing a phytochemical pattern after exposure of 10% of the recommended field dose with a visual effect from 5 to 7.
(§7) Table 2: Sensitivity of plants exposed to glyphosate (Roundup Bio), based on presence of phytochemical changes in all the TLC-Systems at lowest dose of concentration (LC) of the herbicide in percent of field dose. The corresponding visual effect (VE) Is presented (see table 1).

Another assay deals with Bellis perennis. Described as above. The class given is in vivo.
Description: as §1, §2, §3, §4, §5, §6, §7

A further assay relates to Sinapis avensis. Described as above. It counts as in vivo.
Description: as §1, §2, §3, §4, §5, §6, §7

In the next assay the test system is Rumex crispus. Described as above. The class given is in vivo.
Description: as §1, §2, §3, §4, §5, §6, §7

A further assay relates to Papaver rhoeas. Described as above. The class given is in vivo.
Description: as §1, §2, §3, §4, §5, §6, §7

In another assay the test system is Rudbeckia hirta. Described as above. The class given is in vivo.
Description: as §1, §2, §3, §4, §5, §6, §7

For a further assay, the system named is Fallopia convolvulus. The description is as above. It counts as in vivo.
Description: as §1, §2, §3, §4, §5, §6, §7

The next assay relates to Leonorus carica. The description is as above. It counts as in vivo.
Description: as §1, §2, §3, §4, §5, §6, §7

The next assay has as its system Mentha spicata. The assay is described as above. It counts as in vivo.
Description: as §1, §2, §3, §4, §5, §6, §7

As for `O=C(O)CNCP(=O)(O)O` [Glyphosate], in the assay with all tested plants (60 degree days), the “time after exposure at which phytochemical changes were seen” value is listed as 4 days. The “time after exposure up to which a phytochemical pattern was present” value in the assay with all tested plants (480 degree days) is recorded as “up to 32 days”. Moreover, the “increase of shikimic acid levels” value in the assay with white birch seedlings was 10 fold. The “Min. of label dose of herbicide with effect” value in the assay with Centauréa cýanus (TLC 1 (non-specific compounds)) is 10%; with Centauréa cýanus (TLC 6 (lipids and terpens)) it was 10%; in the assay on Centauréa cýanus (TLC 7 (non-specific compounds)) it was 10%. The “LC: lowest dose of concentration of the herbicide with phytochemical changes in all the TLC-Systems” value is 10% of field dose in the assay on Nepeta cataria; 10% of field dose in the assay on Bellis perennis; 10% of field dose in the assay with Sinapis avensis; 1% of field dose with Rumex crispus; 1% of field dose in the assay with Papaver rhoeas; 1% of field dose in the assay on Rudbeckia hirta. Further, the figures for the “LC: lowest dose of concentration of the herbicide with phytochemical changes in all the TLC-Systems” value in the assay with Fallopia convolvulus, with Leonorus carica and with Mentha spicata were 1% of field dose, 10% of field dose and 10% of field dose, respectively.

Values taken from US20040029208A1, “Assay method and kit for testing biological material for exposure to stress using biomarkers” (priority 2000, published 2004).
